What all share (format): functional, Homo sapiens
The subject of test [1] is K562. Description: Compound at 100 uM was tested in vitro to inhibit proliferation of K562 leukemia cell line.
The test system of test [2] is HL-60. Description: Compound at 1 uM was tested in vitro to inhibit proliferation of HL-60 leukemia cell line.
The subject of test [3] is HL-60. The test can be described thus: Compound at 100 uM was tested in vitro to inhibit proliferation of HL-60 leukemia cell line.
For test [4], the system named is HL-60. The test can be described thus: Compound at 10 uM was tested in vitro to inhibit proliferation of HL-60 leukemia cell line.
Test [5] deals with K562. Description: Compound at 1 uM was tested in vitro to inhibit proliferation of K562 leukemia cell line.
Test [6] concerns K562. The test can be described thus: Compound at 10 uM was tested in vitro to inhibit proliferation of K562 leukemia cell line.

Molecules are shown by their SMILES.

For six compounds, IG results are on record in ChEMBL document CHEMBL1133104, “Polyether mimics of naturally occurring cytotoxic annonaceous acetogenins” (2000).

For `CCCCCCCCCCCOCCOCCOCCCCC(O)CCCCCCCC1=C[C@H](C)OC1=O` (stereo partly specified), the IG is given as 31% in test [1]; 0% in test [2]; 100% in test [3]; 50% in test [4]; 0% in test [5]; 18% in test [6].

In the case of `CCCCCCCCCCCC[C@@H](O)[C@H]1CC[C@H]([C@H](O)CCCCCCCCCCCCC2=C[C@H](C)OC2=O)O1` [REL-SOLAMIN], the IG in test [1] worked out at 59%; in test [2], 0%; in test [3] it was 24%; in test [4] it was 8%; in test [5], 29%; in test [6] it was 39%.

For `CCCCCCCCCC[C@@H](O)[C@@H]1CC[C@@H]([C@@H]2CC[C@@H]([C@H](O)CCCCCCCCCC(O)CC3=CC(C)OC3=O)O2)O1` (stereo partly specified) [BULLATACIN], the IG is on record as 53% in test [1]; 0% in test [2]; 73% in test [3]; 7% in test [4]; 27% in test [5]; 39% in test [6].

Turning to `CCCCCCCCCCCC[C@@H](O)[C@H]1CCC([C@H](O)CCCCC(=O)CCCCCCCC2=C[C@H](C)OC2=O)O1` (stereo partly specified), the IG in test [1] is 53%; in test [2] it was 0%; in test [3] it was 68%; in test [4], 29%; in test [5], 2%; in test [6], 16%.

In the case of `CCCCCCCCCCCC[C@@H](O)[C@H]1CCC([C@H](O)CCCCC(O)CCCCCCCC2=C[C@H](C)OC2=O)O1` (mixture of isomers), the IG in test [1] was 10%; in test [2], 5%; in test [3] it was 63%; in test [4], 56%; in test [5], 0%; in test [6], 2%.

`CCCCCCCCCCOCCOCCOCCOCCCCC(O)CCCCCCCC1=C[C@H](C)OC1=O` (stereo partly specified): the IG stood at 55% in test [1]; 21% in test [2]; 100% in test [3]; 65% in test [4]; 22% in test [5]; 25% in test [6].
